According to patent publication US12122812B2, “Method for preparing biomaterial having selectively functionalized tyrosine, biomaterial having selectively functionalized tyrosine, and pharmaceutical composition containing same as active ingredient” (SEOUL NATIONAL UNIVERSITY R&DB FOUNDATION, priority 2018, dated 2024):

What was measured:
HeLa cells = experiment: Cytotoxicity by cell counting kit-8 (CCK-8) viability test; type: cell-based; details: 0.1 to 100 μM
Experimental: The cytotoxicity was evaluated in HeLa cells by cell counting kit-8 (CCK-8) viability test.
Particularly, HeLa cells were seeded in a 96-well tissue culture plate at the density of 5,000 cells/well and cultured in 100 μL of DMEM (Dulbecco's Modified Eagle's Medium) supplemented with 10% FBS (fetal bovine serum) for 24 hours. After replacing the medium with 90 μL of a fresh medium, 10 μl of the compound prepared in Preparative Example 4 of various concentrations (final 0.5% DMSO) was added to each well of the plate, and the cells were further cultured for 24 hours and 48 hours. The cells were washed 3 times with a fresh medium to remove extracellular samples, and 100 μl of a fresh medium containing 10% CCK-8 was added to each well of the plate. After incubating the cells at 37° C. for 2 hours, OD450 was measured with a microplate reader (Molecular Devices Co., Menlo Park, Calif., USA). Only the background signal of CCK-8 was subtracted from all the samples. The cell viability was evaluated as the percentage of absorbance of the untreated cells to the control.

Balb/c mice = experiment: Hematopoietic function of PEGylated rhEPO: hematocrit (HCT) in mice; type: in vivo; details: normal male Balb/c mice, intravenous 20 μg/kg every 3 days
Experimental: In order to confirm whether the PEGylated rhEPO obtained in Example 1 maintained the hematopoietic function even after the PEGylation, the following experiment was performed, and the results are shown in FIG. 6.
The rhEPO without PEGylation and the PEGylated rhEPO (PEG-rhEPO) prepared in Example 1 were intravenously injected into Balb/c mice at a dose of 20 μg/kg every 3 days. In vivo activities were compared by measuring hematocrit (HCT), a reliable method for quantification of erythrocytes. As a control, phosphate buffered saline (PBS) was used.
Particularly, normal male Balb/c mice were purchased from Orient Bio Inc. (South Korea). The weight of the mice was 23-25 g, and the mice were housed in groups of 3-4 mice in one cage. Food and water were supplied freely (ad libitum), and each cage was allowed to have a 12-hour light/dark cycle under the conventional animal experiment system of KPC, Korea.
Each sample (rhEPO or PEG-rhEPO) ([…] in DPBS) was injected intravenously into normal male Balb/c mice (50 μL/mouse) every 3 days for 2 weeks. The same amount of DPBS was administered to the control group. A total of 21 mice were used in the experiment. Blood samples were collected every 3 days including day 0 to evaluate the hematopoietic effect. Hematocrit was evaluated by measuring the volume of the packed cells obtained by centrifugation performed immediately after the blood collection. Delta hematocrit (DHematocrit) was determined by the difference between the initial hematocrit for each mouse (day 0) and the hematocrit at each time point.

Compound	Cytotoxicity (cell viability, CCK-8) (HeLa cells; 24 hours)	Cytotoxicity (cell viability, CCK-8) (HeLa cells; 48 hours)	HCT level compared with rhEPO without PEGylation (statistical analysis) (Balb/c mice)	HCT level (hematocrit) over time (Balb/c mice; blood sampled every 3 days for 15 days)	HCT level compared with control group (statistical analysis) (Balb/c mice; control PBS/DPBS)
N[C@@H](Cc1ccc(OS(=O)(=O)Oc2ccc(C[C@H](N)C(=O)O)cc2)cc1)C(=O)O [Preparative Example 4, (2S,2'S)-3,3′-((sulfonylbis(oxy))bis(4,1-phenylene))bis(2-aminopropanoic Acid)]	did not show cytotoxicity	did not show cytotoxicity			
PEG-rhEPO: PEGylated recombinant human erythropoietin, PEG bound by sulfate bond to Tyr-49			no significant difference	increased for 15 days	clear difference
